The source of these data is ChEMBL document CHEMBL6120946, “From Hit to Lead: Discovery of First-In-Class Furanone Glycoside D228 Derived from Chimonanthus salicifolius for the Treatment of Inflammatory Bowel Disease” (J Med Chem, 2024).

Calls of active or inactive are those of the source. The calls are words filed in the database; no cut-off is given here. Bounds are passed on as bounds.

For one data set, the system named is B-cell line. Description: Immunosuppressive activity in mouse B-lymphocyte assessed as reduction in LPS-induced cell proliferation incubated for 48 hrs. Format: functional, cell-based.
The nature of data set [1]: Immunosuppressive activity in mouse T-lymphocyte assessed as reduction in concanavalin A-induced cell proliferation incubated for 48 hrs. Format: functional, cell-based.
The nature of data set [2]: Cytotoxicity against mouse Splenocyte by MTT assay. Type of data set: toxicity, cell-based. As to conditions: splenocytes.
Data set [3] relates to Mus musculus. Description: Antiinflammatory activity in male C57BL/6 mouse model of inflammatory bowel disease assessed as recovery of DSS-induced body weight loss at 40 mg/kg/day, po via gavage measured after 14 days relative to control. Format: functional. Conditions: time 14 day.
Data set [4] concerns Mus musculus. Description: Antiinflammatory activity in DSS-induced male C57BL/6 mouse model of inflammatory bowel disease assessed as increase in colon length at 250 mg/kg/day, po via gavage measured upto 14 days relative to control. Type of data set: functional. Conditions: time <= 14 day.
Data set [5] relates to Mus musculus. Description: Antiinflammatory activity in DSS-induced male C57BL/6 mouse model of inflammatory bowel disease assessed as restoration of colon length at 40 mg/kg/day, po via gavage measured after 14 days relative to control. As to conditions: time 14 day. Format: functional.
Data set [6] concerns Mus musculus. Description: Antiinflammatory activity in DSS-induced male C57BL/6 mouse model of inflammatory bowel disease assessed as recovery in colon length at 40 mg/kg/day, po measured after 7 days relative to control. Type of data set: functional. Conditions: time 7 day.
Data set [7] can be described thus: Selectivity ratio of CC50 for cytotoxicity against mouse Splenocyte to IC50 for immunosuppressive activity in mouse B-lymphocyte. As to conditions: splenocytes (CC50) and B-lymphocytes (IC50). Type of data set: toxicity.
In data set [8] the test system is Mus musculus. Description: Antiinflammatory activity in DSS-induced male C57BL/6 mouse model of inflammatory bowel disease assessed as recovery from body weight loss at 40 mg/kg/day, po measured after 7 days relative to control. Format: functional. Conditions: time 7 day.
Data set [9] is described as follows: Selectivity ratio of CC50 for cytotoxicity against mouse Splenocyte to IC50 for immunosuppressive activity in mouse T-lymphocyte. Format: toxicity. Conditions: splenocytes (CC50) and T-lymphocytes (IC50).
Data set [10] concerns Mus musculus. Description: Antiinflammatory activity in DSS-induced male C57BL/6 mouse model of inflammatory bowel disease assessed as recovery from body weight loss at 40 mg/kg/day, po measured after 7 days. Type of data set: functional, organism-based. Conditions: time 7.0 day.
Data set [11] concerns Mus musculus. The data set can be described thus: Antiinflammatory activity in DSS-induced male C57BL/6 mouse model of inflammatory bowel disease assessed as reduction in weight loss at 7.5 to 15 mg/kg/day, po via gavage measured upto 14 days. Type of data set: functional, organism-based. Conditions: dose 7.5-15 mg/kg/day, time <= 14.0 day.
Data set [12] concerns Mus musculus. The data set can be described thus: Antiinflammatory activity in DSS-induced male C57BL/6 mouse model of inflammatory bowel disease assessed as reduction of bloody stool at 7.5 to 15 mg/kg/day, po via gavage measured upto 14 days. Type of data set: functional, organism-based. Conditions: dose 7.5-15 mg/kg/day, time <= 14.0 day.
Data set [13] deals with Mus musculus. Description: Antiinflammatory activity in DSS-induced male C57BL/6 mouse model of inflammatory bowel disease assessed as increase in colon length at 15 mg/kg/day, po via gavage measured upto 14 days relative to control. Type of data set: functional. Conditions: time <= 14 day.
Data set [14] deals with Mus musculus. Description: Antiinflammatory activity in DSS-induced male C57BL/6 mouse model of inflammatory bowel disease assessed as increase in colon length at 7.5 mg/kg/day, po via gavage measured upto 14 days relative to control. Format: functional. Conditions: time <= 14 day.
Data set [15] deals with Mus musculus. Description: Antiinflammatory activity in DSS-induced male C57BL/6 mouse model of inflammatory bowel disease assessed as reduction in diarrhea at 7.5 to 15 mg/kg/day, po via gavage measured upto 14 days. Type of data set: functional, organism-based. Conditions: dose 7.5-15 mg/kg/day, time <= 14.0 day.

Usually IC50 stands for the concentration that gives 50% inhibition. A word on the CC50: it is the concentration giving 50% cytotoxicity. Lower therefore signals greater toxicity to the cells. Regarding `CC1=C(O)C(=O)C(=C2CCNCC2)O1`, the IC50 (in the data set with B-cell line; in data set [1]) was over 100 µM in each case. The molecule also displayed a CC50 in data set [2] of 205 µM.
In the case of `O=C(O)c1cc(/N=N/c2ccc(S(=O)(=O)Nc3ccccn3)cc2)ccc1O` [SULFASALAZINE], the Activity with Mus musculus [3] came to 24%; with Mus musculus [4] it was 86.7%; with Mus musculus [5] it was 9.5%.
With `CC1=C(O)C(=O)C(=C2CCCCC2)O1`, the IC50 (in the data set with B-cell line; in data set [1]) was over 100 µM in each case.
As to `CC(=O)OC[C@H]1O[C@@H](OC2=C(C)OC(=C3CCOCC3)C2=O)[C@H](OC(C)=O)[C@@H](OC(C)=O)[C@@H]1OC(C)=O`, the figures for the Activity with Mus musculus [6] and with Mus musculus [8] were 30.5% and 26.3%, respectively. In addition, the selectivity ratio in data set [7] came out at 3.11; in data set [9] it was 1.87. In addition, the IC50 in the data set with B-cell line came to 26.4 µM; in [1] it was 43.6 µM. In the data set with Mus musculus [10], the result was Active. The same molecule registered a CC50 in data set [2] of 71.9 µM.
Turning to `CCOC(=O)OC[C@H]1O[C@@H](OC2=C(C)OC(=C(C)C)C2=O)[C@H](O)[C@@H](O)[C@@H]1O`, the results for the Activity in the data set with Mus musculus [6] and with Mus musculus [8] were 13.3% and 47.6%, respectively. In addition, the IC50 (with B-cell line; in data set [1]) was over 100 µM each time. For the same molecule, the outcome in the data set with Mus musculus [10] was Active. For the same molecule, it took 182 µM to reach half-maximal cytotoxicity in data set [2] (CC50).
Take `CC(=O)OC[C@H]1O[C@@H](OC2=C(C)OC(=C(C)C)C2=O)[C@H](OC(C)=O)[C@@H](OC(C)=O)[C@H]1OC(C)=O`: the Activity in the data set on Mus musculus [3] was 44.8%; with Mus musculus [5], 25.4%. Also, the half-inhibitory concentration (IC50) is over 100 µM in the data set with B-cell line and 201 µM in data set [1]. Also, the selectivity ratio in data set [9] turned out to be 1.06. This molecule had a CC50 in data set [2] of 183 µM.
Consider `CC(=O)OC[C@H]1O[C@@H](OC2=C(C)OC(=C3CCCCC3)C2=O)[C@H](OC(C)=O)[C@@H](OC(C)=O)[C@@H]1OC(C)=O`, for which the Activity in the data set on Mus musculus [6] came to 54.8%; with Mus musculus [8], 30.7%. For the same molecule, the selectivity ratio in [7] came to 0.79; in [9] it was 0.92. Moreover, the IC50 in the data set on B-cell line came out at 54 µM; in data set [1], 4720 µM. In the data set on Mus musculus [10], the result was Active. The molecule also showed a CC50 in data set [2] of 35.6 µM.
Regarding `CC(=O)OC[C@H]1O[C@@H](OC2=C(C)OC(=C3CCN(C(C)=O)CC3)C2=O)[C@H](OC(C)=O)[C@@H](OC(C)=O)[C@@H]1OC(C)=O`, the values for the Activity in the data set with Mus musculus [6] and in the data set on Mus musculus [8] were 26.7% and 13.9%, respectively. The selectivity ratio in data set [7] amounted to 1.74; in data set [9], 1.23. For the same molecule, the IC50 turned out to be 24.9 µM in the data set with B-cell line and 48.3 µM in data set [1]. Moreover, in the data set with Mus musculus [10], the outcome was Active. For the same molecule, the CC50 in data set [2] amounted to 38.7 µM.
With `COC(=O)[C@H]1O[C@@H](OC2=C(C)OC(=C(C)C)C2=O)[C@H](OC(C)=O)[C@@H](OC(C)=O)[C@@H]1OC(C)=O`, the results for the Activity with Mus musculus [3] and with Mus musculus [5] were 44.8% and 9.5%, respectively. The IC50 (in the data set with B-cell line; in data set [1]) was over 100 µM throughout. The CC50 in [2] was found to be 212 µM.
As for `CC(C)=C1OC(C)=C(O[C@@H]2O[C@H](COC(=O)C(C)(C)C)[C@@H](OC(=O)C(C)(C)C)[C@H](OC(=O)C(C)(C)C)[C@H]2OC(=O)C(C)(C)C)C1=O`, the Activity in the data set with Mus musculus [3] was 41.6%; in the data set with Mus musculus [5], 3.2%. Moreover, the IC50 (in the data set on B-cell line; in data set [1]) was over 100 µM throughout. Besides, the CC50 in data set [2] was over 200 µM.
For `CC(=O)OC[C@H]1O[C@@H](OC2=C(C)OC(=C3CCNCC3)C2=O)[C@H](OC(C)=O)[C@@H](OC(C)=O)[C@@H]1OC(C)=O`, the Activity in the data set on Mus musculus [6] amounted to 52.9%; with Mus musculus [8] it was 28%. Besides, the values for the selectivity ratio in [7] and in data set [9] were 0.37 and 0.8, respectively. Moreover, the IC50 in the data set with B-cell line amounted to 41.1 µM; in data set [1], 29.1 µM. Besides, the outcome in the data set with Mus musculus [10] was Active. The same molecule had a CC50 in data set [2] of 15.5 µM.
Take `CC1=C(O)C(=O)C(=C2CCOCC2)O1`: the IC50 (with B-cell line; in data set [1]) was over 100 µM each time. Moreover, the midpoint of cytotoxicity in data set [2], the CC50, lay at 232 µM.
Consider `CC(=O)OC[C@H]1O[C@@H](OC2=C(C)OC(=C3CCCC3)C2=O)[C@H](OC(C)=O)[C@@H](OC(C)=O)[C@@H]1OC(C)=O`, for which the Activity is 45.2% with Mus musculus [6] and 62.5% in the data set with Mus musculus [8]. Also, the selectivity ratio turned out to be 2.73 in data set [7] and 1.83 in [9]. Further, the IC50 with B-cell line is 16.3 µM; in [1], 23.4 µM. Moreover, the result in the data set with Mus musculus [10] was Active. This molecule also returned a CC50 in [2] of 40 µM.
Consider `C/C=C/C[C@@H](C)[C@@H](O)[C@H]1C(=O)N[C@@H](CC)C(=O)N(C)CC(=O)N(C)[C@@H](CC(C)C)C(=O)N[C@@H](C(C)C)C(=O)N(C)[C@@H](CC(C)C)C(=O)N[C@@H](C)C(=O)N[C@H](C)C(=O)N(C)[C@@H](CC(C)C)C(=O)N(C)[C@@H](CC(C)C)C(=O)N(C)[C@@H](C(C)C)C(=O)N1C` [CYCLOSPORINE], for which the IC50 with B-cell line came to 0.46 µM.
On to `CC1=C(O)C(=O)C(=C2CCCC2)O1`, for which the outcome with Mus musculus [11], with Mus musculus [12] and in the data set on Mus musculus [15] was Active. Moreover, the IC50 (in the data set with B-cell line; in data set [1]) was over 100 µM throughout. Moreover, the results for the Activity in the data set with Mus musculus [13] and in the data set with Mus musculus [14] were 98.4% and 99.2%, respectively. The molecule further showed a CC50 in data set [2] of 248 µM.
